42 compounds from patent US8686002B2, “Heterocyclic compounds and their use as binding partners for 5-HT5 receptors” (AbbVie Deutschland GmbH & Co. KG, priority 2005, dated 2014) can be followed below.

The experiment has as its target 5-HT5A (Homo sapiens, UniProt P47898). Nature of the experiment: Affinity of selected compounds for 5-HT5A (Ki). The format is binding. As to the method:
In both assays, different concentrations of the test substances are used and the Ki and IC50 values are determined.

Each structure is given as a SMILES string. Counter-ions that a name gives are not always drawn.

Chain of 5-HT5A (P47898 whole entry): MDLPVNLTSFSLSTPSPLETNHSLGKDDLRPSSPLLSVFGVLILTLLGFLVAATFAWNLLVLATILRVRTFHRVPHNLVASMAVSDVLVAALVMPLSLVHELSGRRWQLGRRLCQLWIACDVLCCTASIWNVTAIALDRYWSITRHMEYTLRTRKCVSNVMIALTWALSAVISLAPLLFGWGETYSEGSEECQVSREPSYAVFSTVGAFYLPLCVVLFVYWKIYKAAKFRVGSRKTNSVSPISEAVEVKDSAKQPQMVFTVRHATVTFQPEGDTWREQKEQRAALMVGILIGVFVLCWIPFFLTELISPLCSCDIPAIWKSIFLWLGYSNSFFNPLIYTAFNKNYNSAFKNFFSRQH

Take `CN(C)CCOc1cccc(F)c1Cc1cc2ccccc2nc1N` [Example 60, 3-{2-[2-(Dimethylamino)ethoxy]-6-fluorobenzyl}quinolin-2-amine bishydrochloride]: the Ki (as a rule, the dissociation constant of the complex between target and ligand, obtained from inhibition or displacement) was below 300 nM. For `Nc1nc2ccccc2cc1Cc1ccccc1OC(F)F` [Example 61, 3-[2-(difluoromethoxy)benzyl]quinolin-2-amine], the Ki is below 300 nM. In turn, `CCOc1ccccc1Cc1cc2cc(N3CCOCC3)ccc2nc1N` [Example 62, 3-(2-Ethoxygenzyl)-6-morpholin-4-ylquinolin-2-amine monofumarate] showed an inhibition constant Ki below 300 nM. In turn, `COc1cccc(OC)c1CN1Cc2ccccc2N=C1N` [Example 63, 3-(2,6-Dimethoxybenzyl)-3,4-dihydroquinazolin-2-amine acetate] yielded an inhibition constant (Ki) below 300 nM. The compound `COc1ccccc1CN1Cc2ccccc2N=C1N` [Example 64, 3-(2-Methoxybenzyl)-3,4-dihydroquinazolin-2-amine hydrochloride] returned an inhibitory constant (Ki) below 300 nM.

As for `COc1ccccc1CN1Cc2ccc(Cl)cc2N=C1N` [Example 65, 7-Chloro-3-(2-methoxybenzyl)-3,4-dihydroquinazolin-2-amine], the Ki is below 300 nM. Take `COc1ccccc1CN1Cc2ccc(C(F)(F)F)cc2N=C1N` [Example 66, 3-(2-Methoxybenzyl)-7-(trifluoromethyl)-3,4-dihydroquinazolin-2-amine hydrochloride]: the inhibition constant (Ki) was below 300 nM.

In turn, `COc1cc(Cl)ccc1CN1Cc2ccccc2N=C1N` [Example 67, 3-(4-Chloro-2-methoxybenzyl)-3,4-dihydroquinazolin-2-amine hydrochloride] registered a Ki below 300 nM. The figure for `NC1=Nc2ccccc2CN1Cc1cccc2c1OCC2` [Example 68, 3-(2,3-Dihydro-1-benzofuran-7-ylmethyl)-3,4-dihydroquinazolin-2-amine hydrochloride] is below 300 nM. The figure for `NC1=Nc2ccccc2CN1Cc1ccccc1OC(F)(F)F` [Example 69, 3-[2-(Trifluoromethoxy)benzyl]-3,4-dihydroquinazolin-2-amine] is below 300 nM; for `COc1ccc(CN2Cc3ccccc3N=C2N)c(OC)c1` [Example 70, 3-(2,4-Dimethoxybenzyl)-3,4-dihydroquinazolin-2-amine] it is below 10000 nM. `COc1cccc(CN2Cc3ccccc3N=C2N)c1OC` [Example 71, 3-(2,3-Dimethoxybenzyl)-3,4-dihydroquinazolin-2-amine hydrochloride] displayed an inhibition constant (Ki) below 10000 nM. Compound `NC1=Nc2ccccc2CN1Cc1ccccc1O` [Example 72, 2-[(2-Aminoquinazolin-3(4H)-yl)methyl]phenol] showed an inhibition constant Ki below 10000 nM. The same measure for `COc1ccccc1CN1Cc2ccccc2N=C1NO` [Example 73, 2-(Hydroxyamino)-3-(2-methoxybenzyl)-3,4-dihydroquinazoline]: below 10000 nM; for `COc1ccccc1CN1Cc2ccccc2N=C1NC1Cc2ccccc2C1` [Example 74, N-(2,3-Dihydro-1H-inden-2-yl)-3-(2-methoxybenzyl)-3,4-dihydroquinazolin-2-amine acetate]: below 300 nM; for `COc1ccccc1CN1Cc2ccccc2N=C1NCc1cccnc1` [Example 75, 3-(2-Methoxybenzyl)-2-[(pyridin-3-ylmethyl)amino]-3,4-dihydroquinazoline acetate]: below 10000 nM. The figure for `CCCCNC1=Nc2ccccc2CN1Cc1ccccc1OC` [Example 76, 2-(Butylamino)-3-(2-methoxybenzyl)-3,4-dihydroquinazoline hydrochloride] is below 10000 nM; for `COc1ccccc1CN1Cc2ccccc2N=C1NCC(C)C` [Example 77, 2-(Isobutylamino)-3-(2-methoxybenzyl)-3,4-dihydroquinazoline acetate] it is below 10000 nM. As to `COc1ccccc1CN1Cc2ccccc2N=C1N1CCNCC1` [Example 78, 3-(2-Methoxybenzyl)-2-piperazin-1-yl-3,4-dihydroquinazoline hydrochloride], the inhibition constant (Ki) was below 10000 nM.

For `COc1ccccc1CN1Cc2ccccc2N=C1N1CCN(C)CC1` [Example 79, 3-(2-Methoxybenzyl)-2-(4-methylpiperazin-1-yl)-3,4-dihydroquinazoline fumarate], the Ki was below 10000 nM. Take `COc1ccccc1CN1Cc2ccccc2N=C1N1CCN(Cc2ccccc2)CC1` [Example 80, 2-(4-Benzylpiperazin-1-yl)-3-(2-methoxybenzyl)-3,4-dihydroquinazoline fumarate]: the Ki was below 10000 nM. `COc1cccc(OC)c1CN1Cc2ccc(Br)cc2N=C1N` [Example 81, 7-Bromo-3-(2,6-dimethoxybenzyl)-3,4-dihydroquinazolin-2-amine]: the inhibition constant Ki was below 300 nM.

With `COc1cccc(OC)c1CN1Cc2ccc(-c3ccccc3)cc2N=C1N` [Example 82, 3-(2,6-Dimethoxybenzyl)-7-phenyl-3,4-dihyroquinazoli-2-aminium acetate], the inhibition constant Ki was below 300 nM.

Take `COc1ccc(-c2ccc3c(c2)N=C(N)N(Cc2c(OC)cccc2OC)C3)cc1` [Example 83, 3-(2,6-Dimethoxybenzyl)-7-(4-methoxyphenyl)-3,4-dihydroquinazolin-2-aminium acetate]: the inhibitory constant (Ki) is below 10000 nM. The same measure for `COc1cccc(OC)c1CN1Cc2ccc(C)cc2N=C1N` [Example 84, 3-(2,6-Dimethoxybenzyl)-7-methyl-3,4-dihydroquinazolin-2-aminium acetate]: below 300 nM; for `COc1cccc(OC)c1CN1Cc2ccc(-c3cccnc3)cc2N=C1N` [Example 85, 3-(2,6-Dimethoxybenzyl)-7-pyridin-3-yl-3,4-dihydroquinazolin-2-aminium acetate]: below 300 nM; for `COc1cccc(OC)c1CN1Cc2ccc(-c3cccs3)cc2N=C1N` [Example 86, 3-(2,6-Dimethoxybenzyl)-7-(2-thienyl)-3,4-dihydroquinazolin-2-aminium acetate]: below 300 nM. The figure for `COc1cccc(OC)c1CN1Cc2ccc(-c3ccc(OC(F)(F)F)cc3)cc2N=C1N` [Example 87, 3-(2,6-Dimethoxybenzyl)-7-[4-trifluoromethoxy)phenyl]-3,4-dihydroquinazoline-2-aminium acetate] is below 300 nM; for `COc1cccc(OC)c1CN1Cc2ccc(Nc3ccccc3)cc2N=C1N` [Example 88, 7-Anilino-3-(2,6-dimethoxybenzyl)-3,4-dihydroquinazolin-2-aminium acetate] it is below 300 nM; for `COc1cccc(OC)c1CN1Cc2cc(Cl)ccc2N=C1N` [Example 89, 6-Chloro-3-(2,6-dimethoxybenzyl)-3,4-dihydroquinazolin-2-amine] it is below 300 nM. The compound `COc1cccc(OC)c1CN1Cc2ccc(Cl)cc2N=C1N` [Example 90, 7-Chloro-3-(2,6-dimethoxybenzyl)-3,4-dihydroquinazolin-2-amine] came in with a Ki below 300 nM.

In turn, `COc1ccccc1CN1Cc2ccc([N+](=O)[O-])cc2N=C1N` [Example 91, 3-(2-Methoxybenzyl)-7-nitro-3,4-dihydroquinazolin-2-amine] had a Ki below 300 nM. Take `COc1cccc(OC)c1CN1Cc2ccccc2N=C1NC1CCCCCC1` [Example 92, N-Cycloheptyl-3-(2,6-dimethoxybenzyl)-3,4-dihydroquinazolin-2-amine hydrochloride]: the Ki was below 300 nM. The compound `COc1cccc(OC)c1CN1Cc2ccccc2N=C1NCc1cccc2ccccc12` [Example 93, 3-(2,6-Dimethoxybenzyl)-N-(1-naphthylmethyl)-3,4-dihydroquinazolin-2-amine hydrochloride] displayed an inhibition constant Ki below 10000 nM. `COc1cccc(OC)c1CN1Cc2ccccc2N=C1NCc1ccccn1` [Example 94, [3-(2,6-Dimethoxybenzyl)-3,4-dihydroquinazolin-2-yl]pyridin-2-ylmethylamine hydrochloride] showed a Ki below 10000 nM. On to `COc1cccc(OC)c1CN1Cc2ccccc2N=C1NCc1ccccc1` [Example 95, N-Benzyl-3-(2,6-dimethoxybenzyl)-3,4-dihydroquinazolin-2-amine hydrochloride], for which the Ki was below 10000 nM.

`COc1ccccc1CN1Cc2ccccc2N=C1NC1CCN(Cc2ccccc2)CC1` [Example 96, N-(1-Benzylpiperidin-4-yl)-3-(2-methoxybenzyl)-3,4-dihydroquinazolin-2-amine fumarate] had a Ki below 10000 nM. As for `COc1ccccc1CN1Cc2ccccc2N=C1NCCc1ccccc1` [Example 97, [3-(2-Methoxybenzyl)-3,4-dihydroquinazolin-2-yl]phenethylamine hydrochloride], the Ki was below 10000 nM. Consider `COc1ccccc1CN1Cc2ccccc2N=C1NCc1cccc2ccccc12` [Example 98, 3-(2-Methoxybenzyl)-N-(1-naphthylmethyl)-3,4-dihydroquinazolin-2-amine hydrochloride], for which the inhibition constant Ki is below 10000 nM. With `COc1ccccc1CN1Cc2ccccc2N=C1NCc1cccs1` [Example 100, 3-(2-Methoxybenzyl)-N-(2-thienylmethyl)-3,4-dihydroquinazolin-2-amine hydrochloride], the Ki is below 10000 nM. The figure for `COc1ccc2c(c1)CN(Cc1ccccc1OC)C(N)=N2` [Example 101, 6-Methoxy-3-(2-methoxybenzyl)-3,4-dihydroquinazolin-2-amine] is below 300 nM. The same measure for `COc1ccccc1CN1Cc2cc(Cl)ccc2N=C1N` [Example 102, 6-Chloro-3-(2-methoxybenzyl)-3,4-dihydroquinazolin-2-amine]: below 300 nM.
